Results from patent US20230414826A1, “FIBRIN HYDROGELS” (Mayo Foundation for Medical Education and Research, priority 2020, published 2023).

Target: T1, fibrin gels (Homo sapiens, UniProt P02671+P02675+P02679)
T1 sequence (P02671 20-644 isoform P02671-2 limits assumed): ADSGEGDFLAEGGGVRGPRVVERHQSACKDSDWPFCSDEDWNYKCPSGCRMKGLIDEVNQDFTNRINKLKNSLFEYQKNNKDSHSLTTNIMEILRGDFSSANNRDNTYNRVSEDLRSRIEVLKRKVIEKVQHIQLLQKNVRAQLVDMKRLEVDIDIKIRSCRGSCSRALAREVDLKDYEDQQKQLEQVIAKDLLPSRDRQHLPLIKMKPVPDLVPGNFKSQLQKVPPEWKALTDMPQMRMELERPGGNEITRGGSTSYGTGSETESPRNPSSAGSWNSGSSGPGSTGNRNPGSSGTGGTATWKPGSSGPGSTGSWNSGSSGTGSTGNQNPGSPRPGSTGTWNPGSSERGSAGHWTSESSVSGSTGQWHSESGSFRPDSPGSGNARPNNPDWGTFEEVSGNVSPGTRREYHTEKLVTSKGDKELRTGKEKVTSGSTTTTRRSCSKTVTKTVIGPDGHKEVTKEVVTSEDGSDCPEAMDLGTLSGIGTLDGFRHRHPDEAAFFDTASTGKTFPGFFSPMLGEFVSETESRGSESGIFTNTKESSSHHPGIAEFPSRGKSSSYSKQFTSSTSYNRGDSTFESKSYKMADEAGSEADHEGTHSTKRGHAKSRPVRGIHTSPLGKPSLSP
T1 sequence (P02675 45-491 limits assumed): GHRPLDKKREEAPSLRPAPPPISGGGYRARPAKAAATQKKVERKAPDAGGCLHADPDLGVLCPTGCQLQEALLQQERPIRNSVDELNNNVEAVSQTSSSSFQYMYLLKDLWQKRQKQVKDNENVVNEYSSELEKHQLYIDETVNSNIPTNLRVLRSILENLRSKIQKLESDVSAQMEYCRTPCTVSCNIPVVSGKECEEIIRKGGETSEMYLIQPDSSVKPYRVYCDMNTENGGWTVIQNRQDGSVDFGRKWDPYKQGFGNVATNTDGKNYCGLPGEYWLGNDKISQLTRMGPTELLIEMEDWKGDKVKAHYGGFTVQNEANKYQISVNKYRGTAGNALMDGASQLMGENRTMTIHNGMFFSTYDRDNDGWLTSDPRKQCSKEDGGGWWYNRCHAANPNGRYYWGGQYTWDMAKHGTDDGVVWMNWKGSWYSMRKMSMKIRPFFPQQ
T1 sequence (P02679 27-437 isoform P02679-2 limits assumed): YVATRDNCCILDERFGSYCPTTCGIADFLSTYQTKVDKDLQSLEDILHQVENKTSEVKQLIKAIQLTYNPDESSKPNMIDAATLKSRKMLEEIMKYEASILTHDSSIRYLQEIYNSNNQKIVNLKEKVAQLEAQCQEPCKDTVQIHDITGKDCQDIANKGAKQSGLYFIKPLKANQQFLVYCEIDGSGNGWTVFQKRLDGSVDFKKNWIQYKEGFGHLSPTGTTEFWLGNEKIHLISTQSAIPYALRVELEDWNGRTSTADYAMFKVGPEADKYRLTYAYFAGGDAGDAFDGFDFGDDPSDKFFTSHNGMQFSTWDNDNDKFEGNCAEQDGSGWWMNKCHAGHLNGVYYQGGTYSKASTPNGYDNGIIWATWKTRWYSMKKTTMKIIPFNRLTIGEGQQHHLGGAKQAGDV
Assay: Fibrin gel degradation with plasminogen and tissue plasminogen activator, thickness by OCT
Details: 1.6 U/mL plasminogen and 17,000 U/mL tPA in PBS, 37° C., gels with 0.12% dye, n=3
Method: Fibrin gels were cast as described in the Electron Microscopy section above and hydrated in PBS. A punch was used to generate 5.0 mm×1.5 mm gels. The measured thickness of all the gels was 309±69 μm.
The fibrin gels were then submerged in a PBS solution with 1.6 U/mL plasminogen (Sigma-Aldrich; St Louis, MO) and 17,000 U/mL tissue plasminogen activator (Sigma-Aldrich) in a glass-bottom petri dish (Mattek) and incubated at 37° C. to initiate degradation as described elsewhere (see, e.g., Gandhi et al., 2018 Acta Biomater., 67:134-46). Fibrin gel thickness was monitored over time by imaging with an Envisu R2110 (Leica; Wetzlar, Germany) optical coherence tomograph (OCT) and quantified using the caliper tool within the accompanying InVivoVue software (Leica). Gel thickness was continually measured every 10 minutes until no physical evidence of the insoluble gel remained. The thickness of a gel was measured at 3 different locations (left, middle, right) on each cross-section. The measure at each location was normalized to its initial value and then averaged.
Fibrin gels produced using PBS, TB, or EB with a geometry of 1.5 mm wide×5.0 mm long×0.2 mm thick were generated. Gels were hydrated in PBS prior to incubation in a solution of tissue plasminogen activator (tPA) and plasminogen (P) at 37° C. […]

Cc1cc(-c2ccc(/N=N/c3c(S(=O)(=O)O)cc4cc(S(=O)(=O)O)cc(N)c4c3O)c(C)c2)ccc1/N=N/c1c(S(=O)(=O)O)cc2cc(S(=O)(=O)O)cc(N)c2c1O [TB, Trypan Blue]
degradation time: 33 ± 18 min

Cc1cc(-c2ccc(/N=N/c3ccc4c(S(=O)(=O)O)cc(S(=O)(=O)O)c(N)c4c3O)c(C)c2)ccc1/N=N/c1ccc2c(S(=O)(=O)O)cc(S(=O)(=O)O)c(N)c2c1O [EB, Evans Blue]
degradation time: 78 ± 37 min
